Results taken from patent publication US12697290B2, “Cosmetic compounds having two linked maleimide groups, cosmetic preparations, and method for treatment of keratin materials” (TARA BRANDS EUROPE S.L.U., priority 2022, dated 2026).

Assay: Thiol recombination: reaction of test compound with cysteine reagent, conversion into mono- and bis-Michael-addition products monitored by LC-MS
Conditions: 30° C.; for Conversion at 15 min, bis-Michael-addition product (bis) / Conversion at 15 min, mono-Michael-addition product (mono) / Conversion at 30 min, bis-Michael-addition product (bis) / Conversion at 30 min, mono-Michael-addition product (mono) / Conversion at 60 min, bis-Michael-addition product (bis) / Conversion at 60 min, mono-Michael-addition product (mono): test solution 1 (pH=5.4), 0.05M
From the text: N-Fmoc-cysteine (hereinafter C1) or N-Cbz-cysteine (hereinafter C2) were obtained by reduction of their cysteine counterparts via a literature known method. Adv. Syn. Catal., 2020, 362, 5093-5104. DOI: 10.1002/adsc.202000716. “OLAPLEX® No. 0 Intensive Bond Building Hair Treatment” is a commercially available product which comprises an active agent, water, phenoxyethanol and sodium benzoate. The active agent is hereinafter labelled “Olaplex active agent” or “reference compound #2”.
The compound to be tested (1 eq.) was dissolved in an aqueous media (0.02-0.05 M) and 4 eq. of cysteine reagent (N-Fmoc-cysteine (C1) or N-Cbz-cysteine (C2)) were added. Two test solutions were used as aqueous media: test solution 1 was a phosphate buffer (pH=5.4) with or without an emulsifier (e.g. Eumulgin) and test solution 2 was an aqueous solution containing 0.49% (w/w) sodium benzoate and 0.30% (w/w) citric acid with or without an emulsifier (e.g. Eumulgin).
To make the phosphate buffer a solution of 0.1-M solution of citric acid (use citric acid monohydrate) and a 0.2-M solution of Na2HPO4 (use Na2HPO4 or Na2HPO4*2H2O) were prepared and mixed with the following ratio: 44.25 mL/55.75 mL=mL 0.1M-citric acid/mL 0.2M Na2HPO4 to give a buffer solution with pH=5.4.
The tests were performed at ambient temperature of 30° C. under stirring with small magnetic stirrers in LC-MS vials or small glass vials (see picture 1). The reactions were performed under normal atmosphere. The reactions were monitored by LC-MS. The reaction scale was between 4 and 10 mg of tested compound. To calculate the conversion into products the ratio between cysteine reagent, mono-Michael-addition product (mono) and bis-Michael-addition product (bis) as shown in the following schemes were compared.

[1] = test solution 1 (pH=5.4)+1% eumulgin, 0.02M
[2] = test solution 1 (pH=5.4)+1% eumulgin, 0.02M, 60 min
[3] = test solution 1 (pH=5.4)+2.5% eumulgin, 0.02M
[4] = test solution 1 (pH=5.4)+2.5% eumulgin, 0.02M, 60 min
[5] = test solution 2+1% Eumulgin, 0.02M
[6] = test solution 2+1% Eumulgin, 0.02M, 60 min

Row | Compound | Conversion at 30 min, bis [1] | Conversion at 30 min, mono [1] | Conversion at 60 min, bis [2] | Conversion at 60 min, mono [2] | Conversion at 30 min, bis [3] | Conversion at 60 min, bis [4] | Conversion at 5 h, bis [3] | Conversion at 15 min, bis-Michael-addition product (bis) | Conversion at 15 min, mono-Michael-addition product (mono) | Conversion at 30 min, bis-Michael-addition product (bis) | Conversion at 30 min, mono-Michael-addition product (mono) | Conversion at 60 min, bis-Michael-addition product (bis) (60 min) | Conversion at 60 min, mono-Michael-addition product (mono) (60 min) | Conversion at 30 min, bis [5] | Conversion at 30 min, mono [5] | Conversion at 60 min, bis [6] | Conversion at 60 min, mono [6] | Conversion at 60 min, mono and bis (test solution 2+1% Eumulgin, 0.02M, 60 min, mono and bis together, peaks are not separated in LC-MS)
1 | O=C1C=CC(=O)N1CCCOCCOCCOCCCN1C(=O)C=CC1=O [Reference compound #1, reference compound] | 50% bis | 0% mono | 60% bis | 0% mono | 97% bis | 88% bis | 82% bis | 9% bis | 0% mono | 10% bis | 0% mono | 22% bis | 29% mono | 30% bis | 30% mono | 56% bis | 9% mono | –
2 | O=C1C=CC(=O)N1CCCOCC12CC(COCCCN3C(=O)C=CC3=O)(C1)C2 [SPC-TB-0001] | – | – | – | – | – | – | – | 15% bis | 0% mono | 28% bis | 0% mono | 21% bis | 0% mono | – | – | – | – | –
3 | O=C1C=CC(=O)N1CCOCC12CC(COCCN3C(=O)C=CC3=O)(C1)C2 [SPC-TB-0002, 1,1′-(((bicyclo[1.1.1]pentane-1,3-diylbis(methylene))bis(oxy))bis(ethane-2,1-diyl))bis(1H-pyrrole-2,5-dione)] | – | – | – | – | – | – | – | 17% bis | 0% mono | 11% bis | 0% mono | 10% bis | 0% mono | – | – | – | – | –
4 | O=C1C=CC(=O)N1CCCOCC12CCC(COCCCN3C(=O)C=CC3=O)(CC1)CC2 [SPC-TB-0003] | – | – | – | – | – | – | – | 29% bis | 9% mono | 77% bis | 10% mono | – | – | – | – | – | – | –
5 | O=C1C=CC(=O)N1CCOCCOCC12CC(COCCOCCN3C(=O)C=CC3=O)(C1)C2 [SPC-TB-0007, 1,1′-(((((bicyclo[1.1.1]pentane-1,3-diylbis(methylene))bis(oxy))bis(ethane-2,1-diyl))bis(oxy))bis(ethane-2,1-diyl))bis(1H-pyrrole-2,5-dione)] | 53% bis | 20% mono | 67% bis | 9% mono | 79% bis | 79% bis | 73% bis | 24% bis | 47% mono | 22% bis | 66% mono | 50% bis | 37% mono | 26% bis | 26% mono | 44% bis | 10% mono | –
6 | O=C1C=CC(=O)N1CCOCCOCCOCC12CC(COCCOCCOCCN3C(=O)C=CC3=O)(C1)C2 [SPC-TB-0013] | 67% bis | 16% mono | 66% bis | 15% mono | 57% bis | 57% bis | 46% bis | – | – | – | – | – | – | 36% bis | 10% mono | – | – | 50% mono and bis*
